This is an account of results in patent US20250127782A1, “METHODS OF TREATING CANCER” (AMGEN INC., priority 2021, published 2025).

Data set [1] deals with CRC. Kind of data set: Study 20170543 Phase 2 CRC cohort, sotorasib monotherapy. Format: in vivo, human. An excerpt: A data snapshot was taken on Jun. 9, 2022.
The subject of data set [2] is KRAS G12C mutated CRC. Kind of data set: Study 20190135 Subprotocol H, sotorasib + panitumumab: safety and tolerability (DLTs, TRAEs). An excerpt:
Accordingly, the primary endpoint will include an assessment of dose limiting toxicities, treatment-emergent and treatment-related adverse events.
The grading of AEs will be based on the guidelines provided in the CTCAE version 5.0. […] A Hy's Law case is defined as: AST or ALT values of ≥3×ULN AND with serum total bilirubin level (TBL) of >2×ULN without signs of cholestasis and with no other clear alternative reason to explain the observed liver related laboratory abnormalities.

Data set [3] can be described thus: Phase 1 study of sotorasib with omeprazole under fasted conditions. Format: in vivo, human.
The nature of data set [4]: Phase 1 study of sotorasib with famotidine or omeprazole under fed conditions. Type of data set: in vivo, human. The procedure:
Safety and tolerability monitoring was performed throughout the study.

Data set [5] in a line: Phase 1 study of sotorasib with rifampin. Format: in vivo, human.
Data set [6] relates to extracellular signal-regulated kinase (ERK). The conditions noted are these: preclinical studies; cited from earlier work.
A short description of data set [7]: Study 20170543 (CodeBreaK 100): sotorasib monotherapy pharmacokinetics. The conditions noted are these: for AUC(0-t): AUC0-24h.
The nature of data set [8]: Study 20190135 Subprotocol H: sotorasib pharmacokinetics in combination with panitumumab.
A short description of data set [9]: Phase 1 study of digoxin with sotorasib. Type of data set: in vivo, human. An excerpt: PK parameters were estimated using non-compartmental methods. Safety and tolerability were monitored throughout the study.
Data set [10] is described as follows: Phase 1 study of midazolam with sotorasib. The conditions noted are these: 2 mg midazolam with 960 mg sotorasib after 14 days of daily sotorasib vs midazolam alone; 5 subjects.
[11] abbreviates: Aug. 6, 2021 data cut, 31 patients on the combination.
The mark [12] stands for this setting: Jun. 24, 2022 data cut-off, 40 patients on the combination.
[13] abbreviates: with omeprazole vs sotorasib alone, fasted state.
[14] abbreviates: famotidine 10 hours prior to and 2 hours after a single dose of sotorasib.
Setting [15] is: repeat doses of omeprazole with a single dose of sotorasib.
[16] abbreviates: 960 mg sotorasib with single dose of 600 mg rifampin.
The mark [17] stands for this setting: human, plasma, oral, day 1, monotherapy (CodeBreaK 100), comparison in Aug. 6, 2021 data cut.
[18] abbreviates: Jun. 24, 2022 data cut-off, combination therapy with panitumumab (n=35).
The mark [19] stands for this setting: 0.5 mg digoxin coadministered with 960 mg sotorasib.
Where [20] appears, read: with a single dose of sotorasib vs digoxin alone.

Usually Tmax stands for the time at which the peak concentration occurs. Broadly, the AUC(0-t) is exposure summed from dosing to a finite time, without extrapolation to infinity. What is called Cmax is the peak of the concentration-time curve. `C=CC(=O)N1CCN(c2nc(=O)n(-c3c(C)ccnc3C(C)C)c3nc(-c4c(O)cccc4F)c(F)cc23)[C@@H](C)C1` (atropisomer, axis not shown; (M)) [sotorasib, 6-fluoro-7-(2-fluoro-6-hydroxyphenyl)-(1M)-1-[4-methyl-2-(propan-2-yl)pyridin-3-yl]-4-[(2S)-2-methyl-4-(prop-2-enoyl)piperazin-1-yl]pyrido[2,3-d]pyrimidin-2(1H)-one]: the response rate in data set [1] is 10%. Further, the “TRAEs of any grade related to the named drug” value in [2] (Apr. 23, 2021 data cut, 8 patients on sotorasib 960 mg QD + panitumumab 6 mg/kg IV Q2W) is reported as 4 patients. Moreover, the “TRAEs leading to dose modification of the named drug” value in [2] (Apr. 23, 2021 data cut, 8 patients on the combination) turned out to be 1 patients. Also, the entries for the “TRAEs of any grade related to the named drug, % of patients” value in data set [2] (setting [11]) and in data set [2] (setting [12]) were 45.2% and 65%, respectively. Moreover, the figures for the “TRAEs of any grade related to the named drug, number of patients” value in [2] (setting [11]) and in [2] (setting [12]) were 14 patients and 26 patients, respectively. Also, the “TRAEs resulting in dose modification of the named drug, % of patients” value is 9.7% in data set [2] (setting [11]) and 15% in [2] (setting [12]). The “TRAEs resulting in dose modification of the named drug, number of patients” value in data set [2] (setting [11]) is 3 patients; in data set [2] (setting [12]), 6 patients. The “mean terminal half-life (t1/2) with omeprazole compared to sotorasib alone” value in data set [3] (960 mg sotorasib with 40 mg omeprazole vs alone, fasted) is “similar”. The safety and tolerability result in data set [3] (coadministered with 40 mg omeprazole or alone, healthy subjects) is “safe and well tolerated”; in data set [4] (960 mg sotorasib with 40 mg famotidine or multiple daily 40 mg omeprazole, healthy subjects), “safe and well tolerated”; in data set [5] (coadministered with 600 mg rifampin or alone, healthy subjects), “safe and well tolerated”. The entries for the “decrease of sotorasib AUCinf” value in data set [3] (setting [13]) and in data set [5] (multiple doses of rifampin) were 42% and 51%, respectively. For the same molecule, the “decrease of sotorasib Cmax” value is reported as 57% in [3] (setting [13]), 35% in data set [4] (setting [14]), 65% in [4] (setting [15]) and 35% in data set [5] (multiple doses of rifampin). Moreover, the “decrease of sotorasib AUC” value came to 38% in data set [4] (setting [14]) and 57% in data set [4] (setting [15]). For the same molecule, the “Geometric mean sotorasib AUCinf” value was found to be 25600 ng·h/mL in [5] (960 mg sotorasib alone) and 19600 ng·h/mL in [5] (setting [16]). For the same molecule, the results for the “Geometric mean sotorasib Cmax” value in data set [5] (960 mg sotorasib alone), in data set [5] (960 mg sotorasib with multiple doses of 600 mg rifampin) and in data set [5] (setting [16]) were 6350 ng/mL, 4110 ng/mL and 5340 ng/mL, respectively. In addition, the CYP3A4 substrate status entry in [5] (inferred from multiple doses of rifampin) is listed as “is a CYP3A4 substrate”. Also, in [5] (inferred from single dose of rifampin), the OATP1B1 substrate status result is “not a substrate of OATP1B1”. Moreover, the “effect of single dose of rifampin on sotorasib PK” value in data set [5] (single dose of rifampin) was “did not have a clinically meaningful effect”. Also, the “phosphorylation of extracellular signal-regulated kinase (ERK)” value in data set [6] is reported as “inhibited nearly all detectable phosphorylation”. Further, the “tmax, median (range)” value in [7] (180 mg, Day 8) is reported as 0.75 (0.50-1.0) hr; in [7] (960 mg, Day 1), 2.0 (0.25-6.0) hr. In addition, the “dose proportionality of exposure” value in [7] (180 to 960 mg PO QD, day 1 and day 8) is listed as “less than dose-proportional”. In addition, the Tmax in data set [7] (after PO administration, 180 to 960 mg PO QD) is 1 to 2 h; in data set [7] (human, plasma, oral), 1.9 h; in data set [7] (human, plasma, oral, tmax, day 8, monotherapy (CodeBreaK 100), comparison in Aug. 6, 2021 data cut) it was 2 h; in data set [7] (human, plasma, oral, tmax, median (range), monotherapy (n=32, CodeBreaK 100), comparison in Jun. 24, 2022 data cut-off) it was 2 h. Besides, the AUC(0-t) in [7] (setting [17]) turned out to be 103000 ng·h/mL; in [7] (human, plasma, oral, mean (CV %), monotherapy (n=32, CodeBreaK 100), comparison in Jun. 24, 2022 data cut-off), 65300 ng·h/mL. Further, the Cmax in data set [7] (setting [17]) was 9710 ng/mL; in data set [7] (human, plasma, oral, day 8, monotherapy (CodeBreaK 100), comparison in Aug. 6, 2021 data cut) it was 6500 ng/mL. Further, in data set [7] (multiple PO QD dosing for 8 days), the “accumulation with multiple dosing” value was “no accumulation”. For the same molecule, the AUC0-24h in data set [8] (Aug. 6, 2021 data cut, day 1, combination therapy with panitumumab) is 77200 ng·h/mL. Further, the “AUC0-24h, mean (CV %)” value in [8] (setting [18]) is recorded as 65.8 (56%) h*μg/mL. Besides, in data set [8] (setting [18]), the “Cmax, mean (CV %)” value is listed as 9.64 (55%) μg/mL.

Regarding `C[C@H]1O[C@@H](O[C@H]2[C@@H](O)C[C@H](O[C@H]3[C@@H](O)C[C@H](O[C@H]4CC[C@@]5(C)[C@H](CC[C@@H]6[C@@H]5C[C@@H](O)[C@]5(C)[C@@H](C7=CC(=O)OC7)CC[C@]65O)C4)O[C@@H]3C)O[C@@H]2C)C[C@H](O)[C@@H]1O` [digoxin], in [9] (0.5 mg digoxin alone), the “Geometric mean digoxin AUCinf” value was determined as 33.2 ng·h/mL and the “Geometric mean digoxin Cmax” value stood at 1.90 ng/mL. Also, in [9] (setting [19]), the “Geometric mean digoxin AUCinf” value is 40.3 ng·h/mL and the “Geometric mean digoxin Cmax” value was 3.64 ng/mL. For the same molecule, the “Digoxin median tmax and mean terminal half-life (t1/2) with sotorasib compared to digoxin alone” value in data set [9] (0.5 mg digoxin with 960 mg sotorasib vs alone) is recorded as “similar”. Besides, the safety and tolerability entry in data set [9] (single doses of 0.5 mg digoxin alone or with 960 mg sotorasib) was “safe and well tolerated”. For the same molecule, in [9] (setting [20]), the “increase of digoxin AUCinf” value was “approximately 21%” and the “increase of digoxin Cmax” value was ~91%.

For `Cc1ncc2n1-c1ccc(Cl)cc1C(c1ccccc1F)=NC2` [midazolam], in [10], the “decrease of midazolam AUV” value amounted to 53% and the “decrease of midazolam Cmax” value is listed as 48%.
